According to ChEMBL document CHEMBL1201862, “PubChem BioAssay data set” (2004):
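Where inhibition never reached the appropriate level, the endpoint shown equals the highest concentration tested. Otherwise, values were interpolated linearly from a five-concentration, 48-hour dose response in 96-well plates. GI50 marks 50% less growth.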 Active and inactive are the calls of the source. Rule as the data show it: active = GI50 up to about 1.1 µM and inactive = higher.

Tests used:
Assay in all cases: NCI anticancer screen, dose series, 48 h
[1] = tested on: PC-3
[2] = tested on: MDA-MB-231
[3] = tested on: MCF7
[4] = tested on: SR
[5] = tested on: CCRF-CEM
[6] = tested on: 786-0
[7] = tested on: EKVX
[8] = tested on: HCC 2998
[9] = tested on: UACC-62
[10] = tested on: SF-539
[11] = tested on: COLO 205
[12] = tested on: BT-549
[13] = tested on: OVCAR-5
[14] = tested on: U-251
[15] = tested on: OVCAR-3
[16] = tested on: MDA-MB-435
[17] = tested on: MDA-N
[18] = tested on: NCI-H23
[19] = tested on: HCT-116
[20] = tested on: HT-29

Compound | GI50 [1] | GI50 [2] | GI50 [3] | GI50 [4] | GI50 [5] | GI50 [6] | GI50 [7] | GI50 [8] | GI50 [9] | GI50 [10] | GI50 [11] | GI50 [12] | GI50 [13] | GI50 [14] | GI50 [15] | GI50 [16] | GI50 [17] | GI50 [18] | GI50 [19] | GI50 [20]
C=C1C(C)C2C(Cc3ccccc3)NC(=O)C23C(OC(C)=O)C=CC(C)(O)C(=O)C(C)C/C=C/C3C1O (centres undefined) | 11.7 µM (inactive) | 0.151 µM (active) | 6.76 µM (inactive) | 3.3 µM (inactive) | 4.24 µM (inactive) | 0.311 µM (active) | 1.8 µM (inactive) | 21.7 µM (inactive) | 3.36 µM (inactive) | 0.117 µM (active) | 0.535 µM (active) | 0.407 µM (active) | 68.9 µM (inactive) | 0.0925 µM (active) | 22.4 µM (inactive) | 51.1 µM (inactive) | 15.6 µM (inactive) | 12.9 µM (inactive) | 3.54 µM (inactive) | –
COCc1nc(C#N)c(N)o1 | > 10 µM (inactive) | > 10 µM (inactive) | > 10 µM (inactive) | > 10 µM (inactive) | > 10 µM (inactive) | > 10 µM (inactive) | > 10 µM (inactive) | > 10 µM (inactive) | > 10 µM (inactive) | > 10 µM (inactive) | > 10 µM (inactive) | > 10 µM (inactive) | – | – | – | > 10 µM (inactive) | > 10 µM (inactive) | > 10 µM (inactive) | > 10 µM (inactive) | > 10 µM (inactive)
O=[N+]([O-])c1ccc(Cl)cc1N/N=C/c1ccnc2ccccc12 | > 100 µM (inactive) | > 100 µM (inactive) | > 100 µM (inactive) | > 100 µM (inactive) | > 100 µM (inactive) | > 100 µM (inactive) | 22.8 µM (inactive) | > 100 µM (inactive) | > 100 µM (inactive) | 21.9 µM (inactive) | > 100 µM (inactive) | > 100 µM (inactive) | – | 17.5 µM (inactive) | > 100 µM (inactive) | 97.3 µM (inactive) | > 100 µM (inactive) | > 100 µM (inactive) | 42.9 µM (inactive) | > 100 µM (inactive)
CN(C1=NCCO1)c1cccc2c1CCCC2 | 2.25 µM (inactive) | 1.73 µM (inactive) | 4.51 µM (inactive) | 1.21 µM (inactive) | 1.15 µM (inactive) | 3.17 µM (inactive) | 8.55 µM (inactive) | 3.79 µM (inactive) | 3.37 µM (inactive) | 3.25 µM (inactive) | 1.89 µM (inactive) | 9.53 µM (inactive) | 3.9 µM (inactive) | 3.57 µM (inactive) | – | 3.64 µM (inactive) | 5.18 µM (inactive) | 3.73 µM (inactive) | 2.99 µM (inactive) | 2.43 µM (inactive)
COC(=O)[C@@H]1C[C@H]2OC(=O)CC[C@]2(C)O[C@H]1[C@H]1O[C@@](C)(O)CCC[C@H]1C | > 50 µM (inactive) | > 50 µM (inactive) | > 50 µM (inactive) | > 50 µM (inactive) | 14.5 µM (inactive) | > 50 µM (inactive) | > 50 µM (inactive) | > 50 µM (inactive) | > 50 µM (inactive) | > 50 µM (inactive) | > 50 µM (inactive) | > 50 µM (inactive) | > 50 µM (inactive) | > 50 µM (inactive) | > 50 µM (inactive) | > 50 µM (inactive) | > 50 µM (inactive) | > 50 µM (inactive) | > 50 µM (inactive) | > 50 µM (inactive)
COc1ccc2cc(C(=O)O)ccc2c1OC | > 100 µM (inactive) | > 100 µM (inactive) | > 100 µM (inactive) | > 100 µM (inactive) | > 100 µM (inactive) | > 100 µM (inactive) | – | > 100 µM (inactive) | > 100 µM (inactive) | > 100 µM (inactive) | > 100 µM (inactive) | > 100 µM (inactive) | > 100 µM (inactive) | > 100 µM (inactive) | > 100 µM (inactive) | > 100 µM (inactive) | > 100 µM (inactive) | > 100 µM (inactive) | > 100 µM (inactive) | > 100 µM (inactive)
O=S(=O)(c1ccccc1)N1CCCC(c2ccccc2)CC1 (centres undefined) | 30.6 µM (inactive) | 30.4 µM (inactive) | 24 µM (inactive) | 16.9 µM (inactive) | 33.8 µM (inactive) | 41.9 µM (inactive) | – | 23.9 µM (inactive) | > 100 µM (inactive) | > 100 µM (inactive) | 42 µM (inactive) | 58.3 µM (inactive) | > 100 µM (inactive) | 45.5 µM (inactive) | 53.2 µM (inactive) | 82 µM (inactive) | 64.6 µM (inactive) | 27.5 µM (inactive) | 38.3 µM (inactive) | 15.1 µM (inactive)
CCOC(=O)c1sc2nc(SC)nc3c2c1NCN3c1ccc(F)c(F)c1 | 16.4 µM (inactive) | 13 µM (inactive) | 36 µM (inactive) | > 21.5 µM (inactive) | 16.7 µM (inactive) | 4.82 µM (inactive) | 32.4 µM (inactive) | > 36.1 µM (inactive) | > 52.4 µM (inactive) | 5.2 µM (inactive) | > 100 µM (inactive) | 6.79 µM (inactive) | > 100 µM (inactive) | 9.27 µM (inactive) | 5.57 µM (inactive) | 6.81 µM (inactive) | 18.3 µM (inactive) | 14.6 µM (inactive) | 9.02 µM (inactive) | 29.8 µM (inactive)
O=C1C(NCCO)=C(N2CC2)C(=O)C(NCCO)=C1N1CC1 | > 100 µM (inactive) | > 90.4 µM (inactive) | > 100 µM (inactive) | 16.8 µM (inactive) | 17.9 µM (inactive) | 24.4 µM (inactive) | > 81.1 µM (inactive) | > 100 µM (inactive) | 25.1 µM (inactive) | 39.4 µM (inactive) | > 67.6 µM (inactive) | > 69 µM (inactive) | 58.2 µM (inactive) | 31.5 µM (inactive) | 33.7 µM (inactive) | > 100 µM (inactive) | > 60.4 µM (inactive) | 29.2 µM (inactive) | 29.6 µM (inactive) | 49 µM (inactive)
CC(=O)Nc1ccc(/N=C2\C(c3ccccc3)=C(SC3=C(c4ccccc4)/C(=N\c4ccc(NC(C)=O)cc4)c4ccccc43)c3ccccc32)cc1 | 31.1 µM (inactive) | 50.8 µM (inactive) | 27.4 µM (inactive) | 23.8 µM (inactive) | 24.7 µM (inactive) | 37.3 µM (inactive) | 34.5 µM (inactive) | 26.7 µM (inactive) | – | < 0.01 µM (active) | 32 µM (inactive) | 24.8 µM (inactive) | 51.5 µM (inactive) | 49.8 µM (inactive) | 27.4 µM (inactive) | 26.5 µM (inactive) | 32.8 µM (inactive) | 31.3 µM (inactive) | 34.4 µM (inactive) | 36.7 µM (inactive)
COC(=O)C1OC(O[C@H]2CC[C@]3(C)[C@H]4CC=C5[C@@H]6CC(C)(C)CC[C@]6(C(=O)OC6OCC(O)C(O)C6OC6OC(C)C(OC7OCC(OC8OCC(O)C(O)C8O)C(O)C7O)C(O)C6O)[C@H](O)C[C@@]5(C)[C@]4(C)CC[C@H]3C2(C)C)C(O)C(O)C1O (some centres undefined) | 4.19 µM (inactive) | 2.71 µM (inactive) | 0.69 µM (active) | 3.05 µM (inactive) | 17.3 µM (inactive) | 6.32 µM (inactive) | 2.32 µM (inactive) | 1.63 µM (inactive) | 3.29 µM (inactive) | 11.4 µM (inactive) | 1.66 µM (inactive) | 2.04 µM (inactive) | 2.77 µM (inactive) | 5.83 µM (inactive) | 6.82 µM (inactive) | 1.95 µM (inactive) | 1.78 µM (inactive) | 2.43 µM (inactive) | 2.19 µM (inactive) | 2.71 µM (inactive)
CCOC1CC(C)N(C(=O)c2ccccc2)O1 (centres undefined) | 80.2 µM (inactive) | > 100 µM (inactive) | > 100 µM (inactive) | > 100 µM (inactive) | > 100 µM (inactive) | > 100 µM (inactive) | > 100 µM (inactive) | > 100 µM (inactive) | > 100 µM (inactive) | > 100 µM (inactive) | – | > 100 µM (inactive) | > 100 µM (inactive) | > 100 µM (inactive) | > 100 µM (inactive) | > 100 µM (inactive) | > 100 µM (inactive) | > 100 µM (inactive) | > 100 µM (inactive) | > 100 µM (inactive)
CCCCCCCCCCCCCC/C(C(=O)O)=C(\C)C(=O)O | 38.2 µM (inactive) | > 100 µM (inactive) | > 100 µM (inactive) | 41.5 µM (inactive) | > 100 µM (inactive) | > 100 µM (inactive) | > 100 µM (inactive) | > 100 µM (inactive) | > 100 µM (inactive) | > 100 µM (inactive) | > 100 µM (inactive) | > 100 µM (inactive) | > 100 µM (inactive) | > 100 µM (inactive) | > 100 µM (inactive) | > 100 µM (inactive) | > 100 µM (inactive) | > 100 µM (inactive) | > 100 µM (inactive) | > 100 µM (inactive)
COc1ccc2c(c1OC)C(=O)O[C@@H]2[C@H]1c2c(cc3c(c2OC)OCO3)CCN1C [NOSCAPINE] | 50.1 µM (inactive) | 76.6 µM (inactive) | 42.3 µM (inactive) | 38.8 µM (inactive) | 12.9 µM (inactive) | 49.9 µM (inactive) | – | 79.4 µM (inactive) | 56.9 µM (inactive) | 30.8 µM (inactive) | 63.5 µM (inactive) | 45.7 µM (inactive) | > 100 µM (inactive) | 41 µM (inactive) | 16.5 µM (inactive) | 4.86 µM (inactive) | 23.1 µM (inactive) | 79.1 µM (inactive) | 50.5 µM (inactive) | 40 µM (inactive)
